How the values were obtained:
Format in all cases: in vivo
[1] = tested on: adult bed bugs (Cimex lectularius); experiment: Direct spray knockdown of adult bed bugs; conditions: for bed bug knockdown activity, in words: early time points; for bed bugs exhibiting knockdown, average count of 5 trials (of 10): 10% nootkatone, 0.1% BHT in isopropanol
Experimental: (§1) A direct spray formulation, containing 10% nootkatone (from Bedoukian Research, Inc., Product No. 800; Danbury, Conn.), 0.1% butylated hydroxytoluene (BHT) in isopropanol, stored at ambient temperature and humidity, was tested for efficacy for knockdown and mortality among adult bed bugs (Cimex lectularius). Adult bed bugs (ICR, Baltimore, Md.) used in this study were blood fed within 7 days of testing. The bed bugs were anesthetized with CO2 and five groups of ten bed bugs were transferred into 9 dram vials at least 2 hours prior to testing. Just prior to treatment, the bed bugs were transferred to 16 oz. paper solo cups with cloth glued to the bottom on the inside of the cup and a screened lid. Each replicate was then sprayed manually, using a 2-3 oz. pump sprayer, with 1 gram±0.1 grams of the 10% nootkatone formulation. Each replicate was sprayed separately from a vertical distance of 6 inches above the bed bugs. The spray bottle was weighed before and after treating each replicate to confirm the weight of the test sample dispensed. All spraying took place in a vented, stainless steel Peet Grady chamber (6×6×6 ft). […] Knockdown was defined as the inability of a bed bug to right itself when placed on its back. After the five minute time point, the bed bugs were transferred to recovery containers that hold 16 oz. paper solo cups equipped with screened lids. A further knockdown study took place at 15 minutes post treatment. Serving as control samples, five replicates of 10 adult bed bugs were treated with isopropyl alcohol alone and five replicates of 10 adult bed bugs were treated with water, following the protocol outlined above.
(§2) A direct spray formulation, containing 5% nootkatone (from Bedoukian Research, Inc., Product No. 800; Danbury, Conn.), 0.1% butylated hydroxytoluene (BHT) in acetone, stored at ambient temperature and humidity, was tested for efficacy for knockdown and mortality among adult bed bugs (Cimex lectularius) using the same procedure as described in Example 1 above. Five replicates of ten bed bugs were sprayed with 1.0 g±20% of a 5% nootkatone in acetone solution stabilized with 0.1% BHT. An additional five replicates were treated with 1.0 g±20% of tap water to serve as a control.

[2] = tested on: adult bed bugs (Cimex lectularius); experiment: Direct spray mortality of adult bed bugs; conditions: for bed bug mortality, in words: within the 15 minute knockdown study; for Alive, Treatment (bed bug count, of 50) / Dead, Treatment (bed bug count, of 50) / Moribund, Treatment (bed bug count, of 50): 5% nootkatone, 0.1% BHT in acetone
Experimental: as §1
After the knockdown counts were complete, the bed bugs were maintained in treatment chambers, in the laboratory at ambient light, temperature, and humidity conditions. Mortality counts were made at 24 and 48 hours post treatment. […] Table 4 below provides the average mortality data for the five replicates of bed bugs treated with water, isopropanol alone, or with 10% nootkatone in isopropanol at 24 and 48 hours.
as §2
After the knockdown counts were complete, the bed bugs were maintained in treatment chambers, in the laboratory at ambient light, temperature, and humidity conditions. Mortality counts were made at 1, 2, 3, 4 and 5 days post treatment. […] Table 5 below provides the mortality data for the replicates of bed bugs treated with water (control) or with 5% nootkatone in acetone.

[3] = tested on: adult cat fleas (Ctenocephalides felis); experiment: Cat flea repellency, treated versus untreated paper towel halves in payliner; conditions: for Percent Repellency (corrected for isopropanol control) / cat fleas on 10% Nootkatone-treated paper towel, average count of five trials (of 10): 10% nootkatone, 0.1% BHT in isopropanol
Experimental: A formulation, containing 10% nootkatone, 0.1% butylated hydroxytoluene (BHT) in isopropanol was tested for efficacy for repelling adult cat fleas (Ctenocephalides felis). Equal amounts of 10% nootkatone solution, stored at ambient temperature and humidity, were applied to five semi-circular pieces of paper towels, arranged so that they were evenly spaced on a sheet of aluminum foil, until sufficiently wet to the touch. Five untreated semi-circular pieces were marked with the letter “c”, for control, on both sides in pencil or solvent resistant ink. Each of the semi-circular pieces of paper towel had the diameter of a 5-gallon payliner. Immediately after spraying the paper towels with the nootkatone solution, the treated towels were placed in 5 5-gallon payliners. The untreated semi-circular paper towels were also placed in the payliners, with the flat sides of the semi-circle side-by-side with those of the treated pieces, so that the bottoms of the payliners were completely covered with paper towel, half treated and half untreated. Five additional payliners with one semi-circular paper towel treated with isopropyl alcohol and the other untreated served as controls. A 9 dram vial, containing 10 cat fleas (El Labs Inc (Soquel, Calif.)) was emptied onto each of the untreated paper towels in the payliners (total of 10 payliners). The distribution of the cat fleas on the control vs. treated paper towels was recorded at 0.5, 1, 1.5, 2, and 24 hours. Observations were made quietly to minimize the disturbance to the fleas by the observer. The containers were kept at ambient temperature and humidity for the duration of the study. The repellency was calculated from the following equation: R=[(C−T)/C]*100, where R is the % repellency, C is the fraction of fleas on the isopropanol-treated paper towel pieces, and T is the fraction of fleas on the nootkatone-treated paper towel pieces.

[4] = tested on: adult bed bugs (Cimex lectularius); experiment: Bed bug repellency, treated versus untreated filter paper halves in Petri dish chamber; conditions: for Repellency (%) Treatment Group / bed bugs on Nootkatone treatment filter paper (count, of 50) / Repellency (summary of bedbug repellency): 0.1% BHT; for Repellency (summary of bedbug repellency): Day 1
[5] = time 1 (head: Minutes; text: days post treatment)
[6] = time 2 (head: Minutes; text: days post treatment)
[7] = time 3 (head: Minutes; text: days post treatment)
[8] = time 4 (head: Minutes; text: days post treatment)
[9] = time 5 (head: Minutes; text: days post treatment)
[10] = 10% nootkatone in isopropanol, 24 hr post treatment
[11] = 10% nootkatone in isopropanol, 48 hr post treatment
[12] = 0.50% nootkatone in acetone, Day 1, 0.5 hour

Structure (SMILES): C=C(C)[C@@H]1CCC2=CC(=O)C[C@@H](C)[C@]2(C)C1 [nootkatone, 4,4a,5,6,7,8-hexahydro-6-isopropenyl-4,4a-dimethyl-2(3H)-naphtalenone]
- bed bug knockdown compared with control, in words ([1]; 5% nootkatone in acetone, 15 minutes): no greater effect on bed bug knockdown than that observed for the control
- bed bug knockdown activity, in words ([1]; 5% nootkatone in acetone): some knockdown activity
- bed bug knockdown compared with isopropanol alone, in words ([1]; 10% nootkatone in isopropanol, 15 minutes): no greater effect on bed bug knockdown than that observed for isopropanol alone
- bed bug knockdown activity, in words ([1]; 10% nootkatone in isopropanol): some knockdown activity
- bed bugs exhibiting knockdown, average count of 5 trials (of 10) ([1]; 0.5 min post treatment): 1.6
- bed bugs exhibiting knockdown, average count of 5 trials (of 10) ([1]; 1 min post treatment): 2.6
- bed bugs exhibiting knockdown, average count of 5 trials (of 10) ([1]; 2 min post treatment): 4.6
- bed bugs exhibiting knockdown, average count of 5 trials (of 10) ([1]; 3 min post treatment): 5
- bed bugs exhibiting knockdown, average count of 5 trials (of 10) ([1]; 4 min post treatment): 4.6
- bed bugs exhibiting knockdown, average count of 5 trials (of 10) ([1]; 5 min post treatment): 4.8
- bed bugs exhibiting knockdown, average count of 5 trials (of 10) ([1]; 15 min post treatment): 4.4
- bed bug mortality compared with control, in words ([2]; 5% nootkatone in acetone, 5 days): did not kill bed bugs after 5 days above mortality levels observed for the control
- bed bug mortality, in words ([2]; 5% nootkatone in acetone): No mortality was observed
- Alive, Treatment (bed bug count, of 50) [2, 5]: 50
- Dead, Treatment (bed bug count, of 50) [2, 5]: 0
- Moribund, Treatment (bed bug count, of 50) [2, 5]: 0
- Alive, Treatment (bed bug count, of 50) [2, 6]: 49
- Dead, Treatment (bed bug count, of 50) [2, 6]: 1
- Moribund, Treatment (bed bug count, of 50) [2, 6]: 0
- Alive, Treatment (bed bug count, of 50) [2, 7]: 48
- Dead, Treatment (bed bug count, of 50) [2, 7]: 1
- Moribund, Treatment (bed bug count, of 50) [2, 7]: 1
- Alive, Treatment (bed bug count, of 50) [2, 8]: 45
- Dead, Treatment (bed bug count, of 50) [2, 8]: 2
- Moribund, Treatment (bed bug count, of 50) [2, 8]: 3
- Alive, Treatment (bed bug count, of 50) [2, 9]: 42
- Dead, Treatment (bed bug count, of 50) [2, 9]: 5
- Moribund, Treatment (bed bug count, of 50) [2, 9]: 3
- bed bug mortality compared with isopropanol alone, in words ([2]; 10% nootkatone in isopropanol, 24 or 48 hours): did not kill bed bugs after 24 or 48 hours above mortality levels observed for isopropanol alone
- Alive, average bed bug count of 5 trials (of 10) [2, 10]: 6.4
- Dead, average bed bug count of 5 trials (of 10) [2, 10]: 3.6
- Moribund, average bed bug count of 5 trials (of 10) [2, 10]: 0
- Alive, average bed bug count of 5 trials (of 10) [2, 11]: 5.2
- Dead, average bed bug count of 5 trials (of 10) [2, 11]: 4.8
- Moribund, average bed bug count of 5 trials (of 10) [2, 11]: 0
- bed bug mortality, in words ([2]; 10% nootkatone in isopropanol): No mortality was observed
- cat flea repellency, in words ([3]; 10% nootkatone in isopropyl alcohol): does not repel cat fleas
- Percent Repellency (corrected for isopropanol control) ([3]; 0.5 hr): −40.0%
- cat fleas on 10% Nootkatone-treated paper towel, average count of five trials (of 10) ([3]; 0.5 hr): 5.6
- Percent Repellency (corrected for isopropanol control) ([3]; 1 hr): 9.5%
- cat fleas on 10% Nootkatone-treated paper towel, average count of five trials (of 10) ([3]; 1 hr): 3.8
- Percent Repellency (corrected for isopropanol control) ([3]; 1.5 hr): 9.5%
- cat fleas on 10% Nootkatone-treated paper towel, average count of five trials (of 10) ([3]; 1.5 hr): 3.8
- Percent Repellency (corrected for isopropanol control) ([3]; 2 hr): 20.0%
- cat fleas on 10% Nootkatone-treated paper towel, average count of five trials (of 10) ([3]; 2 hr): 3.2
- Percent Repellency (corrected for isopropanol control) ([3]; 24 hr): 38.9%
- cat fleas on 10% Nootkatone-treated paper towel, average count of five trials (of 10) ([3]; 24 hr): 2.2
- Repellency (%) Treatment Group ([4]; 0.01% nootkatone in acetone, Day 1, 1.0 hour): 66.0%
- bed bugs on Nootkatone treatment filter paper (count, of 50) ([4]; 0.01% nootkatone in acetone, Day 1, 24.0 hour): 21
- bedbug repellency, in words ([4]; 0.01% nootkatone in acetone, day 1 and day 2, statistically significant versus the control): moderate bedbug repellency
- Repellency (%) Treatment Group ([4]; 0.10% nootkatone in acetone, Day 1, 0.5 hour): 94.0%
- Repellency (%) Treatment Group ([4]; 0.10% nootkatone in acetone, Day 1, 2.0 hour): 94.0%
- bedbug repellency, in words ([4]; 0.1% nootkatone in acetone, day one): good bedbug repellent for one day
- Repellency (%) Treatment Group [4, 12]: 100.0%
- bed bugs on Nootkatone treatment filter paper (count, of 50) [4, 12]: 0
- bed bugs on Nootkatone treatment filter paper (count, of 50) ([4]; 0.50% nootkatone in acetone, Day 1, Average of time points): 0.0
- Repellency (%) Treatment Group ([4]; 0.50% nootkatone in acetone, Day 2, 1.0 hour): 88.0%
- bed bugs on Nootkatone treatment filter paper (count, of 50) ([4]; 0.50% nootkatone in acetone, Day 2, Average of time points): 4.2
- bedbug repellency, in words ([4]; 0.5% nootkatone in acetone, two days): good bedbug repellent for two days
- Repellency (summary of bedbug repellency) ([4]; Nootkatone 0.010% in acetone): 66.0%
- Repellency (summary of bedbug repellency) ([4]; Nootkatone 0.10% in acetone): 93.6%

Source: patent US20150250166A1, “NOOTKATONE AS AN INSECTICIDE AND INSECT REPELLENT” (ALLYLIX, INC., priority 2012, published 2015)
